Results from the Deep4Chem optical property database.

Experiment: photoluminescence quantum yield (fraction); solvent given as SMILES

Work on COc1ccc2c(c1)sc1[n+]2[B-](F)(F)OC(c2ccc(N(C)C)cc2)=N1 yielded a photoluminescence quantum yield (in C1CCOC1) of 0.8, a photoluminescence quantum yield (in CC#N) of 0.38 and a photoluminescence quantum yield (in CC(C)=O) of 0.56. The photoluminescence quantum yield (in Cc1ccccc1) was 0.88 and the photoluminescence quantum yield (in ClCCl) was 0.83.

O=C([O-])c1c(Cl)c(Cl)c(Cl)c(Cl)c1-c1c2cc(I)c(=O)c(I)c-2oc2c(I)c([O-])c(I)cc12 showed a photoluminescence quantum yield (in CC(C)O) of 0.14, a photoluminescence quantum yield (in CCO) of 0.11 and a photoluminescence quantum yield (in CO) of 0.08. It also gave a photoluminescence quantum yield (in O) of 0.018.

For CCCCC(CC)Cn1c2cc(C#N)ccc2c2ccc(C#Cc3ccc4ccc5c(C#Cc6ccc7c8ccc(C#N)cc8n(CC(CC)CCCC)c7c6)ccc6ccc3c4c65)cc21 (stereo unspecified), the photoluminescence quantum yield (in ClCCl) was 0.38.

Cn1c(=O)cc(C(=O)c2ccccc2)c2sc(-c3ccc(C(F)(F)F)cc3)cc21 showed a photoluminescence quantum yield (in CC#N) of 0.8 and a photoluminescence quantum yield (in ClCCl) of 0.82.

With COc1ccc(-c2oc3cccc4c5c(-c6ccc(OC)cc6)/c(=N/S(=O)(=O)C(F)(F)F)oc6cccc(c2c34)c65)cc1 the photoluminescence quantum yield (in ClC(Cl)Cl) was 0.96.

For CCOc1cc2c(cc1/C=C/C1=CC(=C(C#N)C#N)CC(C)(C)C1)c1ccccc1n2CC, the photoluminescence quantum yield (in C1CCOC1) was 0.021, the photoluminescence quantum yield (in CC#N) was 0.018 and the photoluminescence quantum yield (in CCO) was 0.025. For the same molecule, the photoluminescence quantum yield (in CCOC(C)=O) was 0.026, the photoluminescence quantum yield (in CN(C)C=O) was 0.035 and the photoluminescence quantum yield (in CS(C)=O) was 0.05. It also gave a photoluminescence quantum yield (in Cc1ccccc1) of 0.008, a photoluminescence quantum yield (in ClC(Cl)Cl) of 0.017 and a photoluminescence quantum yield (in ClCCl) of 0.028.

In the case of COc1ccc(/C=C/c2nc3ccccc3s2)cc1, the photoluminescence quantum yield (in C1CCCCC1) is reported as 0.005 and the photoluminescence quantum yield (in CO) is reported as 0.001.

Molecule NS(=O)(=O)c1ccc(N2N=C(c3ccc(O)cc3)CC2c2ccc(Br)cc2)cc1 (stereo unspecified) has a photoluminescence quantum yield (in C1CCOC1) of 0.7, a photoluminescence quantum yield (in C1COCCO1) of 0.75 and a photoluminescence quantum yield (in CC#N) of 0.65. The photoluminescence quantum yield (in CC(C)O) was 0.57, the photoluminescence quantum yield (in CCO) was 0.5 and the photoluminescence quantum yield (in CCOC(C)=O) was 0.75. The photoluminescence quantum yield (in CN(C)C=O) was 0.68, the photoluminescence quantum yield (in CO) was 0.38 and the photoluminescence quantum yield (in CS(C)=O) was 0.69. It also gave a photoluminescence quantum yield (in O) of 0.56.

Work on COc1ccccc1C1=[N+]2C(=Cc3c4c(c(-c5ccccc5OC)n3[B-]2(F)F)C2CCC4CC2)C2=C1C1CCC2CC1 yielded a photoluminescence quantum yield (in ClCCl) of 0.77.

Molecule Cc1cc(C)c(B2c3cc(C(C)(C)C)cc4ccc5c6ccccc6c6cc(C(C)(C)C)cc2c6c5c34)c(C)c1 has a photoluminescence quantum yield (in C1CCCCC1) of 0.72.

O=C(c1ccncc1)c1ccc(-n2c3ccccc3c3cc(-n4c5ccccc5c5ccccc54)ccc32)cc1 gave a photoluminescence quantum yield (in Cc1ccccc1) of 0.178 and a photoluminescence quantum yield (in c1cc(-c2cccc(-n3c4ccccc4c4ccccc43)c2)cc(-n2c3ccccc3c3ccccc32)c1) of 0.72.

With CCOC(=O)/C(C#N)=C\c1ccc2c(c1)c1ccccc1n2-c1ccc(OC)cc1 the photoluminescence quantum yield (in C1CCOC1) was 0.13, the photoluminescence quantum yield (in CC#N) was 0.04 and the photoluminescence quantum yield (in CC(C)=O) was 0.05. It also gave a photoluminescence quantum yield (in CCOC(C)=O) of 0.08, a photoluminescence quantum yield (in CO) of 0.02 and a photoluminescence quantum yield (in CS(C)=O) of 0.03. It also gave a photoluminescence quantum yield (in Cc1ccccc1) of 0.14 and a photoluminescence quantum yield (in ClC(Cl)Cl) of 0.09.

In the case of O=C(O)c1ccccc1, the photoluminescence quantum yield (in O) is reported as 0.001.

Work on c1ccc(-c2ncc3ccccn23)cc1 yielded a photoluminescence quantum yield (in ClC(Cl)Cl) of 0.05.

For CC(C)(C)c1ccc2c(c1)c1cc(C(C)(C)C)ccc1n2-c1ccc(S(=O)(=O)c2ccc(-n3c4ccc(C(C)(C)C)cc4c4cc(C(C)(C)C)ccc43)cn2)nc1, the photoluminescence quantum yield (in O=P(c1ccccc1)(c1ccccc1)c1ccc2sc3cccc(P(=O)(c4ccccc4)c4ccccc4)c3c2c1) was 0.62.

In the case of C[n+]1ccc(/C=C/c2ccc(N(c3ccccc3)c3ccc(/C=C/c4cc[n+](C)cn4)cc3)cc2)nc1, the photoluminescence quantum yield (in OCC(O)CO) is reported as 0.026.

In the case of COc1ccc(C(=Cc2ccc(/C=C(\C#N)c3ccc([N+](=O)[O-])cc3)cc2)c2ccc(OC)cc2)cc1, the photoluminescence quantum yield (in C1CCOC1) is reported as 0.045.

In the case of c1ccc(-c2nc(-c3ccc(N4c5ccccc5Oc5ccccc54)cc3)nn2-c2ccc(N3c4ccccc4Oc4ccccc43)cc2)nc1, the photoluminescence quantum yield (in ClCCl) is reported as 0.11.

CCC(CC)COC1=CC2=C3c4cc(OCC(CC)CC)c(-c5ccccc5)n4[B-](F)(F)[n+]4c3n(c3cc(C(C)(C)C)ccc34)[B-](F)(F)[N+]2=C1c1ccccc1 gave a photoluminescence quantum yield (in C1CCOC1) of 0.11 and a photoluminescence quantum yield (in ClCCl) of 0.13.

For Cc1ccc(/C2=c3\cc/c(o3)=C(\c3ccc(C)cc3)c3ccc([nH]3)-c3ccc4n3[B-](F)(F)[N+]3=C(C=CC3=C4c3ccco3)c3ccc2[nH]3)cc1, the photoluminescence quantum yield (in ClC(Cl)Cl) was 0.08.

With Cc1sc(Cl)cc1-c1nc(-c2ccccc2)[nH]c1-c1cc(Cl)sc1C the photoluminescence quantum yield (in CC#N) was 0.017.

CC(C)(C)c1ccc(-n2c(-c3ccc(N(c4ccc(-c5ccc(N(c6ccc(-c7nc8c9ccccc9c9ccccc9c8n7-c7ccc(C(C)(C)C)cc7)cc6)c6ccc(-c7nc8c9ccccc9c9ccccc9c8n7-c7ccc(C(C)(C)C)cc7)cc6)cc5)cc4)c4ccc(-c5nc6c7ccccc7c7ccccc7c6n5-c5ccc(C(C)(C)C)cc5)cc4)cc3)nc3c4ccccc4c4ccccc4c32)cc1 gave a photoluminescence quantum yield (in ClCCl) of 0.451.

In the case of COc1ccc(C#Cc2c3ccccc3c(C#Cc3ccc(OC)cc3)c3cc4ccccc4cc23)cc1, the photoluminescence quantum yield (in ClCCl) is reported as 0.85.

In the case of CC(C)(C)c1ccc(N(c2ccccc2)c2ccc3ccc4c(N(c5ccccc5)c5ccc(C(C)(C)C)cc5)ccc5ccc2c3c54)cc1, the photoluminescence quantum yield (in ClCCl) is reported as 0.71.

For COC(=O)c1ccc(/C=C/C(F)(F)F)c(N)c1, the photoluminescence quantum yield (in C1CCOC1) was 0.74.

Cc1cc(-n2c3ccccc3c3cc4c(cc32)C2c3ccccc3C4c3ccccc32)c(C)cc1-c1nc(-c2ccccc2)nc(-c2ccccc2)n1 showed a photoluminescence quantum yield (in Cc1ccccc1) of 0.46 and a photoluminescence quantum yield (in O=P(c1ccccc1)(c1ccccc1)c1ccccc1Oc1ccccc1P(=O)(c1ccccc1)c1ccccc1) of 0.3.

C[Si](C)(C)C#CC#Cc1ccc2c3cccc4cccc(c5cccc1c52)c43 gave a photoluminescence quantum yield (in C1CCCCC1) of 0.51.

CCCCCCOc1ccc(N(c2ccc(OCCCCCC)cc2)c2ccc(-c3sc(-c4ccc(N(c5ccc(OCCCCCC)cc5)c5ccc(OCCCCCC)cc5)cc4)c4nc(CC)c(CC)nc34)cc2)cc1 showed a photoluminescence quantum yield (in CN(C)C=O) of 0.0205 and a photoluminescence quantum yield (in ClC(Cl)Cl) of 0.0225.

With CCN(CC)c1ccc(/C=N/C2CCCCC2/N=C/c2ccc(N(CC)CC)cc2O)c(O)c1 (stereo unspecified) the photoluminescence quantum yield (in CC#N) was 0.068.

Molecule CN(C)c1ccc(C2=Nc3scc(-c4ccccc4)[n+]3[B-](F)(F)O2)cc1 has a photoluminescence quantum yield (in C1CCOC1) of 0.75, a photoluminescence quantum yield (in CC#N) of 0.08 and a photoluminescence quantum yield (in Cc1ccccc1) of 0.94. It also gave a photoluminescence quantum yield (in ClCCl) of 0.89.

For N#Cc1ccc(-c2pc3ccccc3s2)cc1 (stereo unspecified), the photoluminescence quantum yield (in CC#N) was 0.017.

In the case of N#Cc1nn(-c2ccccc2Cl)nc1N1CCCC1, the photoluminescence quantum yield (in CC#N) is reported as 0.607.

With c1ccc(N(c2ccccc2)c2ccc(-c3ccc4c(c3)C3(c5ccccc5Sc5ccccc53)c3cc(-c5ccc(N(c6ccccc6)c6ccccc6)cc5)ccc3-4)cc2)cc1 the photoluminescence quantum yield (in ClCCl) was 0.81 and the photoluminescence quantum yield (in c1cc(-n2c3ccccc3c3ccccc32)cc(-n2c3ccccc3c3ccccc32)c1) was 0.88.

With c1ccc(Nc2nc(Nc3ccccc3)nc(Nc3cc4ccc5cccc6ccc(c3)c4c56)n2)cc1 the photoluminescence quantum yield (in CC#N) was 0.19, the photoluminescence quantum yield (in CCCCOCCCC) was 0.21 and the photoluminescence quantum yield (in CO) was 0.21.

Work on CCCCCCCCCCC1(CCCCCCCCCC)c2cc(-c3nc4ccccc4s3)ccc2-c2ccc(N3C(=O)c4ccc5c6ccc7c8c(ccc(c9ccc(c4c59)C3=O)c86)C(=O)N(c3ccc4c(c3)C(CCCCCCCCCC)(CCCCCCCCCC)c3cc(-c5nc6ccccc6s5)ccc3-4)C7=O)cc21 yielded a photoluminescence quantum yield (in Cc1ccccc1) of 0.23 and a photoluminescence quantum yield (in ClCCl) of 0.0025.

c1ccc(-c2cn3ccc[n+]3[n-]2)cc1 showed a photoluminescence quantum yield (in ClCCl) of 0.03.

For Cc1cccn2c1cc1c3ccccc3nc(-c3cccs3)c12, the photoluminescence quantum yield (in CS(C)=O) was 0.2.

For Oc1ccc(Br)cc1-c1nc2c(c3c1-c1ccccc1CC3)-c1ccccc1CC2, the photoluminescence quantum yield (in ClCCl) was 0.01.

Cc1cc(=O)cc(-c2ccc(-c3nc4ccccn4c3NC3CCCCC3)cc2)o1 showed a photoluminescence quantum yield (in ClCCl) of 0.019.

COc1ccc2cc(/C=C/c3ccccc3)c(=O)oc2c1 showed a photoluminescence quantum yield (in CC#N) of 0.71.

O=C(c1ccc2c3c(sc2c1)-c1ccccc1P3(=O)c1ccccc1)c1c(F)c(F)c(F)c(F)c1F (stereo unspecified) showed a photoluminescence quantum yield (in ClCCl) of 0.29.

CCN(CC)c1ccc(C2=C3C(C)=CC(/C=C/c4ccc(OCCCN=[N+]=[N-])cc4)=[N+]3[B-](F)(F)n3c(C)cc(C)c32)cc1 gave a photoluminescence quantum yield (in CO) of 0.82.

c1ccc2c(c1)c1ccccc1n2-c1ccc(-c2ccc(-c3ccc(-n4c5ccccc5c5ccccc54)nc3-n3c4ccccc4c4ccccc43)nn2)c(-n2c3ccccc3c3ccccc32)n1 gave a photoluminescence quantum yield (in Cc1ccccc1) of 0.36.

Cc1ccc(C2=C3C=CC(C#Cc4ccccc4)=[N+]3[B-](F)(F)n3c(C#Cc4ccccc4)ccc32)cc1 gave a photoluminescence quantum yield (in C1CCCCC1) of 1, a photoluminescence quantum yield (in C1CCOC1) of 0.99 and a photoluminescence quantum yield (in C1COCCO1) of 1. For the same molecule, the photoluminescence quantum yield (in CCOC(C)=O) was 1, the photoluminescence quantum yield (in CO) was 1 and the photoluminescence quantum yield (in Cc1ccccc1) was 1. The photoluminescence quantum yield (in ClC(Cl)Cl) was 1 and the photoluminescence quantum yield (in ClCCl) was 1.

Molecule CCCCn1c(-c2ccc(-c3nnc(-c4cccs4)o3)cc2)nc(-c2ccccc2)c1-c1ccccc1 has a photoluminescence quantum yield (in ClCCl) of 0.33.

N#Cc1nn(-c2cc(F)cc(F)c2)nc1N1CCCC1 gave a photoluminescence quantum yield (in CC#N) of 0.837.

With C(=C\c1ccc2ccccc2c1)/c1ccc(N(c2ccccc2)c2ccccc2)cc1 the photoluminescence quantum yield (in CC#N) was 0.42 and the photoluminescence quantum yield (in CCCCCC) was 0.61.

Work on Cc1cc(C)c(C2=C3C=CC=[N+]3[B-]3(c4ccc5ccc6cccc7ccc4c5c67)Oc4cc(O)cc5c6ccc(C)cc6c6cc2n3c6c45)c(C)c1 (stereo unspecified) yielded a photoluminescence quantum yield (in ClC(Cl)Cl) of 0.24.

In the case of O=[N+]([O-])c1ccc([N+]2=Cc3ccc4c5c(ccc4c3O[B-]2(c2c(F)c(F)c(F)c(F)c2F)c2c(F)c(F)c(F)c(F)c2F)C=[N+](c2ccc([N+](=O)[O-])cc2)[B-](c2c(F)c(F)c(F)c(F)c2F)(c2c(F)c(F)c(F)c(F)c2F)O5)cc1, the photoluminescence quantum yield (in Cc1ccccc1) is reported as 0.83 and the photoluminescence quantum yield (in ClCCl) is reported as 0.66.

Work on CC(C)(C)c1ccc(-c2c(-c3ccc(-n4c5ccccc5c5ccccc54)cc3)c(C#N)c(-c3ccc(-n4c5ccccc5c5ccccc54)cc3)c(-c3ccc(C(C)(C)C)cc3)c2-c2ccc(C(C)(C)C)cc2)cc1 yielded a photoluminescence quantum yield (in C1CCOC1) of 0.803.

For CCOC(=O)/C(C)=C/C1=C(c2ccc(C)cc2)C2=Nc3c(-c4ccc(C)cc4)c(Br)c(-c4ccc(C)cc4)n3[B-](F)(F)[N+]2=C1c1ccc(C)cc1, the photoluminescence quantum yield (in ClC(Cl)Cl) was 0.03.

In the case of Cc1ccc(-c2c3nc(c(-c4ccc(C)cc4)c4ccc([nH]4)c(-c4ccc(OC(=O)C(C)c5ccc(Oc6ccccc6)cc5)cc4)c4nc(c(-c5ccc(C)cc5)c5ccc2[nH]5)C=C4)C=C3)cc1 (stereo unspecified), the photoluminescence quantum yield (in ClCCl) is reported as 0.128.

c1ccc2c(c1)ncc1ccc3cnc4ccccc4c3c12 gave a photoluminescence quantum yield (in CC#N) of 0.14.
